# Experimental data reported in paper PMC8745223, “Novel 1,3,5-Triazinyl Aminobenzenesulfonamides Incorporating Aminoalcohol, Aminochalcone and Aminostilbene Structural Motifs as Potent Anti-VRE Agents, and Carbonic Anhydrases I, II, VII, IX, and XII Inhibitors” (International Journal of Molecular Sciences, 2021).
# How the values were obtained:
# [1] = target: T1, hCA II (Homo sapiens, UniProt P00918); assay: stopped-flow CO2 hydration assay; type: biochemical
# T1 construct: gene CA2; recombinant
# Outline: (§1)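 Ki was derived by non-linear least squares using the Cheng–Prusoff equation. The underlying data were initial rates of CO2 hydration by recombinant human carbonic anhydrase, measured by stopped-flow for 10–100 s with 0.2 mM phenol red (557 nm), 20 mM Hepes pH 7.5, 20 mM Na2SO4 and 1.7–17 mM CO2, after a 15 min room-temperature preincubation of enzyme with inhibitor. Uncatalysed rates were subtracted, at least six traces were used per rate, and values were averaged over three or more determinations.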
# [2] = target: T2, hCA I (Homo sapiens, UniProt P00915); assay: stopped-flow CO2 hydration assay; type: biochemical
# T2 construct: gene CA1; recombinant
# Outline: as §1
# [3] = target: T3, hCA VII (Homo sapiens, UniProt P43166); assay: stopped-flow CO2 hydration assay; type: biochemical
# T3 construct: gene CA7; recombinant
# Outline: as §1
# [4] = stopped-flow CO2 hydration assay; type: biochemical, Homo sapiens; settings: read-out: KI (nM) ^a / hCA I
# Outline: as §1
# [5] = system: T4, E. faecalis ATCC 29212 (EF); assay: microbe, parasite or virus in culture; design: broth microdilution MIC in BHI, Alamar Blue read-out, 37 °C; settings: Enterococcus faecalis, ATCC29212, 24 h
# T4 construct: ATCC 29212
# Description: (§2) The inhibition activity against enterococci was evaluated by the microtitration broth method according to the Clinical and Laboratory Standards Institute with some modifications. The compounds were dissolved in DMSO and serially diluted in Brain Hearth Infusion (BHI) to reach concentrations 256–2 µg/mL. […] The experiment was repeated at least three times. All the investigated compounds were tested on their anti-staphylococcal activity against three clinical isolates of methicillin-resistant Staphylococcus aureus (MRSA) and S. aureus ATCC 29213 as the reference and quality control strain.
# [6] = system: T5, Enterococcus faecalis VRE 342 B; assay: organism not typed; design: broth microdilution MIC in BHI, Alamar Blue read-out, 37 °C; settings: 24 h
# T5 construct: VRE 342 B (vanA clinical isolate)
# Description: as §2
# [7] = system: T6, Enterococcus faecalis VRE 368; assay: organism not typed; design: broth microdilution MIC in BHI, Alamar Blue read-out, 37 °C; settings: 24 h
# T6 construct: VRE 368 (vanA clinical isolate)
# Description: as §2
# [8] = system: T7, Enterococcus faecalis VRE 725 B; assay: organism not typed; design: broth microdilution MIC in BHI, Alamar Blue read-out, 37 °C; settings: 24 h
# T7 construct: VRE 725B (vanA clinical isolate)
# Description: as §2, with “strain. […] All the compounds were tested against Enterococcus faecalis ATCC 29212 as the reference strain and three isolates from American crows of vanA-carrying vancomycin-resistant E. faecalis (VRE), and the activities, expressed as minimum inhibitory concentrations (MICs), are listed in Table 3.” for “strain.”
# [9] = system: T5, Enterococcus faecalis VRE 342 B; assay: organism not typed; design: broth microdilution MIC in BHI, Alamar Blue read-out, 37 °C; settings: 24 h; remark: listed apart in the source
# Description: as §2, with “strain. […] All the compounds were tested against Enterococcus faecalis ATCC 29212 as the reference strain and three isolates from American crows of vanA-carrying vancomycin-resistant E. faecalis (VRE), and the activities, expressed as minimum inhibitory concentrations (MICs), are listed in Table 3.” for “strain.”
# [10] = system: T6, Enterococcus faecalis VRE 368; assay: organism not typed; design: broth microdilution MIC in BHI, Alamar Blue read-out, 37 °C; settings: 24 h; remark: listed apart in the source
# Description: as §2, with “strain. […] All the compounds were tested against Enterococcus faecalis ATCC 29212 as the reference strain and three isolates from American crows of vanA-carrying vancomycin-resistant E. faecalis (VRE), and the activities, expressed as minimum inhibitory concentrations (MICs), are listed in Table 3.” for “strain.”
# [11] = system: T4, E. faecalis ATCC 29212 (EF); assay: microbe, parasite or virus in culture; design: broth microdilution MIC in BHI, Alamar Blue read-out, 37 °C; settings: Enterococcus faecalis, ATCC29212, 24 h; remark: listed apart in the source
# Description: as §2, with “strain. […] All the compounds were tested against Enterococcus faecalis ATCC 29212 as the reference strain and three isolates from American crows of vanA-carrying vancomycin-resistant E. faecalis (VRE), and the activities, expressed as minimum inhibitory concentrations (MICs), are listed in Table 3.” for “strain.”
# [12] = target: T2, hCA I; assay: biochemical; design: stopped-flow CO2 hydration assay, phenol red indicator at 557 nm, 15 min preincubation with inhibitor
# Description: (§3) AnSX.18MV-R Applied Photophysics stopped-flow instrument (Applied Photophysics, Leatherhead, UK) has been used for assaying the CA catalyzed CO2 hydration activity. Phenol red (at a concentration of 0.2 mM) has been used as an indicator, working at the absorbance maximum of 557 nm, with 20 mM Hepes (pH 7.5) as a buffer and 20 mM Na2SO4 (for maintaining constant the ionic strength), following the CA-catalyzed CO2 hydration reaction for a period of 10–100 s. The CO2 concentrations ranged from 1.7 to 17 mM for the determination of the kinetic parameters and inhibition constants. For each inhibitor, at least six traces of the initial 5–10% of the reaction were used for determining the initial velocity. The uncatalyzed rates were determined in the same manner and were subtracted from the total observed rates. Stock solutions of the inhibitor (0.1 mM) were prepared in distilled-deionized water, and dilutions up to 0.005 nM were done thereafter with the assay buffer. Inhibitor and enzyme solutions were preincubated together for 15 min at room temperature prior to assay in order to allow for the formation of the E–I complex. The inhibition constants were obtained by non-linear least-squares methods using PRISM 3 and the ChengPrusoff equation, as reported earlier, and represent the mean from at least three different determinations. All CA isoforms were recombinant ones and were prepared as reported earlier. Errors in the range of 5–10% of the reported value (Mean from three different assays, by stopped-flow technique). The presence of aminobenzenesulfonamide structural moiety in the structure of target compounds 1–44 can cause inhibition activity in these compounds against human carbonic anhydrases. The inhibition of physiologically relevant hCA I and hCA II can lead to various undesirable side effects. On the other hand, the inhibition of tumor-associated isoenzymes hCA IX and hCA XII could be a great benefit in tumor treatment. Inhibition of isoenzyme hCA VII, which is presented mostly in the brain, can be a new approach for the treatment of epilepsy or chronic neuropathic pain [42, 43]. Compounds 1–44 were evaluated as potential inhibitors of hCA I, hCA II, hCA VII, hCA IX, and hCA XII. The inhibition activities against individual hCAs were determined by methodology based on stopped-flow assay. For completeness, Table 2 also includes the previously published inhibition activities of compounds 2, 3, 5–12 and 18–19. Values of KIs were compared with clinically used sulfonamides as standards—AAZ (acetazolamide), BRZ (brinzolamide), DCP (dichlorphenamide), DZA (dorzolamide), EZA (ethoxzolamide), MZA (methazolamide), and IND (indisulam; canceled in clinical trials).
# [13] = target: T1, hCA II; assay: biochemical; design: stopped-flow CO2 hydration assay, phenol red indicator at 557 nm, 15 min preincubation with inhibitor
# Description: as §3
# [14] = target: T8, hCA IX (Homo sapiens, UniProt Q16790); assay: biochemical; design: stopped-flow CO2 hydration assay, phenol red indicator at 557 nm, 15 min preincubation with inhibitor
# T8 construct: gene CA9; recombinant
# Description: as §3
# [15] = target: T3, hCA VII; assay: biochemical; design: stopped-flow CO2 hydration assay, phenol red indicator at 557 nm, 15 min preincubation with inhibitor
# Description: as §3
# T3 sequence (P43166 whole entry): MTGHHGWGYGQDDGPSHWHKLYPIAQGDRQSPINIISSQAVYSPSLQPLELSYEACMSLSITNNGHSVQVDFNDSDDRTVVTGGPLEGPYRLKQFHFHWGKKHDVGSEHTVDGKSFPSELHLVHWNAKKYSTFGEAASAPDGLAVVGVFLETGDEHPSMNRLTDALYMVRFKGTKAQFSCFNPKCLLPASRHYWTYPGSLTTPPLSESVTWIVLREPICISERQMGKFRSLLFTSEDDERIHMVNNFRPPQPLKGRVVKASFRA
# T2 sequence (P00915 2-261): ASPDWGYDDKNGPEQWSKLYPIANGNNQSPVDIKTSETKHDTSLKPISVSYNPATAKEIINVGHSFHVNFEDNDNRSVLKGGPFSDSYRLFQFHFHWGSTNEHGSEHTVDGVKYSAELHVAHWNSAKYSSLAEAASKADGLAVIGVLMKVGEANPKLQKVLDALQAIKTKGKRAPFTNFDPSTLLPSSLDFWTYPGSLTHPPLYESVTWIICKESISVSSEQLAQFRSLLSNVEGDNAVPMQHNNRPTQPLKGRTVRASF
Compound,Ki [1],Ki [2],Ki [3],Ki [4],MIC [5],MIC [6],MIC [7],MIC [8],MIC [9],MIC [10],MIC [11],Ki [12],Ki [13],Ki [14],Ki [15]
"NS(=O)(=O)c1ccc(CNc2nc(NCCCO)nc(Nc3ccc(C(=O)/C=C/c4cccc(O)c4)cc3)n2)cc1 [compound 15, 15]",3020 nM,> 10000 nM,25.9 nM,> 10000 nM,222 µM,222 µM,111 µM,111 µM,–,–,–,–,–,–,–
"NS(=O)(=O)c1ccc(CCNc2nc(Nc3ccc(O)cc3)nc(Nc3ccc(C(=O)/C=C/c4ccccc4)cc3)n2)cc1 [compound 21, (E)-4-[2-({4-[(4-Cinnamoylphenyl)amino]-6-[(4-hydroxyphenyl)amino]-1,3,5-triazin-2-yl}amino)ethyl]benzenesulfonamide]",3160 nM,> 10000 nM,810 nM,> 10000 nM,26.3 µM,26.3 µM,26.3 µM,26.3 µM,–,–,–,–,–,–,–
"NS(=O)(=O)c1ccc(CCNc2nc(NCC(O)CO)nc(Nc3ccc(C(=O)/C=C/c4ccccc4O)cc3)n2)cc1 (centres unmarked) [compound 23, 23]",83 nM,> 10000 nM,88.7 nM,> 10000 nM,52.8 µM,52.8 µM,52.8 µM,105 µM,–,–,–,–,–,–,–
"NS(=O)(=O)c1ccc(CNc2nc(NCC(O)CO)nc(Nc3ccc(C(=O)/C=C/c4ccc(O)cc4)cc3)n2)cc1 (centres unmarked) [compound 28, 28]",–,–,–,–,–,–,–,> 444 µM,> 444 µM,> 444 µM,> 444 µM,8220 nM,184 nM,8460 nM,594 nM
